Experimental data reported in US20140088124A1, “IMIDAZOLE DERIVATIVES” (priority 2011, published 2014).

Target: T1, human DGAT1 enzyme expressed in Sf9 insect cells prepared as microsomes (Homo sapiens, UniProt O75907)
T1 construct: made in house; host or cells: Sf9 insect cells (microsomes)
T1 sequence (O75907 1-488): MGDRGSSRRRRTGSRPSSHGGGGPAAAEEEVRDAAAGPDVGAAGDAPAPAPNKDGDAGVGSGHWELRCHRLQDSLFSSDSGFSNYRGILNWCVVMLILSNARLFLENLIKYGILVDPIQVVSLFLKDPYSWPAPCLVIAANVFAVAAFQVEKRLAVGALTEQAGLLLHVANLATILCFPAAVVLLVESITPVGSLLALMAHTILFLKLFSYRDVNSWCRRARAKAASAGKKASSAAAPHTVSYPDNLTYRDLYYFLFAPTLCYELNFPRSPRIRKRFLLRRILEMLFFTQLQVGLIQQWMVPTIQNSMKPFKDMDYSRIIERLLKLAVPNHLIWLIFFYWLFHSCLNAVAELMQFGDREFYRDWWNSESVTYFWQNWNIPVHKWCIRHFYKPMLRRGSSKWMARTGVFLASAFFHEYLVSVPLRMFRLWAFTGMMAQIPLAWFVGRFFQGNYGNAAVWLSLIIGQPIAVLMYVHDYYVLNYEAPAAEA
Assay: in vitro assay to identify DGAT1 inhibitors ([14C]-palmitoyl-CoA, wheat germ agglutinin beads, TopCount)
Type: biochemical
Conditions: 2 hours at room temperature
Procedure: If compounds 141-162 were assayed they were assayed as follows: the in vitro assay to identify DGAT1 inhibitors uses human DGAT1 enzyme expressed in Sf9 insect cells prepared as microsomes. The reaction is initiated by the addition of the combined substrates 1,2-dioleoyl-sn-glycerol and [^14C]-palmitoyl-Co A and incubated with test compounds and microsomal membranes for 2 hours at room temperature. The assay is stopped by adding 0.5 mg wheat germ agglutinin beads in assay buffer with 1% Brij-35 and 1% 3-cholamidopropyldimethyl-ammonio-1-propane sulfonate. Plates are sealed with TopSeal and incubated for 18 hours to allow the radioactive triglyceride product to come into proximity with the bead. Plates are read on a TopCount instrument.
Percent inhibition was calculated as the percent of (test compound inhibition minus non-specific binding) relative to (total binding minus non-specific binding). IC50 values were determined by curve fitting the data to a Sigmoidal dose-response in GraphPad Prism utilizing the following equation:
Y=A+(B−A)/(1+10̂((Log IC50−X))),
where A and B are the bottom and top of the curve (highest and lowest inhibition), respectively, and X is the logarithm of concentration.

SMILES | IC50 [nM]
COC(=O)c1ccccc1OCC1CCN(c2ccc(-c3nc4cc(C(F)(F)F)ccc4[nH]3)cn2)CC1 [Example 151] | 2700
O=C(O)c1cc(OCC2CCN(c3ccc(-c4nc5cc(Cl)ccc5[nH]4)cn3)CC2)cc(C(=O)O)c1 [Example 146, 5-((1-(5-(5-chloro-1H-benzo[d]imidazol-2-yl)pyridin-2-yl)piperidin-4-yl)methoxy)isophthalic acid] | 18
COC(=O)c1cccc(OCC2CCN(c3ccc(-c4nc5cc(Cl)ccc5[nH]4)cn3)CC2)c1 [Example 143] | 1830
O=C(O)c1ccccc1OCC1CCN(c2ccc(-c3nc4cc(C(F)(F)F)ccc4[nH]3)cn2)CC1 [Example 152] | 14
O=C(O)C1(COCC2CCN(c3ccc(-c4nc5cc(Cl)ccc5[nH]4)cn3)CC2)CCC1 [Example 161] | 95
O=C(O)c1cccc(OCC2CCN(c3ccc(-c4nc5cc(C(F)(F)F)ccc5[nH]4)cn3)CC2)c1 [Example 142, 3-[[1-[5-[5-(trifluoromethyl)-1H-benzol[d]imidazol-2-yl]pyridine-2-yl]piperidin-4-yl]methoxy]benzoic acid] | 13
COC(=O)c1cccc(OCC2CCN(c3ccc(-c4nc5cc(C(F)(F)F)ccc5[nH]4)cn3)CC2)c1 [Example 141, methyl 3-[[1-[5-[5-(trifluoromethyl)-1H-benzol[d]imidazol-2-yl]pyridine-2-yl]piperidin-4-yl]methoxy]benzoate] | 2500
O=C(O)C1(COCC2CCN(c3ccc(-c4nc5cc(C(F)(F)F)ccc5[nH]4)cn3)CC2)CCC1 [Example 162] | 62
Cc1ccc(C(=O)O)cc1OCC1CCN(c2ccc(-c3nc4cc(C(F)(F)F)ccc4[nH]3)cn2)CC1 [Example 157] | 15
CC(C)(COCC1CCN(c2ccc(-c3nc4cc(Cl)ccc4[nH]3)cn2)CC1)C(=O)O [Example 159] | 108
CC(C)(COCC1CCN(c2ccc(-c3nc4cc(C(F)(F)F)ccc4[nH]3)cn2)CC1)C(=O)O [Example 160] | 84

Results, then the compound that gave them:

IC50 [nM] | SMILES
58 | O=C(O)c1ccc(F)cc1OCC1CCN(c2ccc(-c3nc4cc(Cl)ccc4[nH]3)cn2)CC1 [Example 154]
31 | O=C(O)c1ccc(F)cc1OCC1CCN(c2ccc(-c3nc4cc(C(F)(F)F)ccc4[nH]3)cn2)CC1 [Example 155]
1070 | O=C(O)c1cc(F)ccc1OCC1CCN(c2ccc(-c3nc4cc(Cl)ccc4[nH]3)cn2)CC1 [Example 148, 2-[[1-[5-(6-chloro-1H-benzimidazol-2-yl)-2-pyridinyl]-4-piperidinyl]methoxy]-5-fluorobenzoic acid]
12 | Cc1ccc(C(=O)O)cc1OCC1CCN(c2ccc(-c3nc4cc(Cl)ccc4[nH]3)cn2)CC1 [Example 156]
8 | O=C(O)c1cccc(OCC2CCN(c3ccc(-c4nc5cc(Cl)ccc5[nH]4)cn3)CC2)c1 [Example 144]
85 | O=C(O)c1ccccc1OCC1CCN(c2ccc(-c3nc4cc(Cl)ccc4[nH]3)cn2)CC1 [Example 153]
67 | O=C(O)c1ccc(OCC2CCN(c3ccc(-c4nc5cc(Cl)ccc5[nH]4)cn3)CC2)cc1 [Example 150, 4-[[1-[5-(6-Chloro-1H-benzimidazol-2-yl)-2-pyridinyl]-4-piperidinyl]methoxy]benzoic acid]
